Reference: US20240197236A1, “ELECTRO-ANATOMIC CARDIAC REPOLARIZATION MAPPING” (University Health Network, priority 2022, published 2024)

Tested on: rabbit heart
Experiment: Rabbit heart Langendorff, simultaneous optical mapping and epicardial electrode-grid mapping of repolarization duration
Details: after 20 uM addition of pinacidil to the perfusate
Procedure: A study was performed to adapt a rabbit heart Langendorff optical mapping model^42 to add the recording of electrical EGMs to a commercially-available electrode array lab (Advisor […] catheter, Abbott Laboratories), after its use in the clinical laboratory for animal use. This involved using a UHN research mapping system in which unipolar EGMs from a 16-electrode grid were used to record cardiac signals with a proprietary mapping system (described previously as UHN Cartesian Mapping System^43) at a sampling rate of 1 kHz. This electrode array was chosen as spacing between the splines allowed recording of the fluorescence from the voltage-sensitive dye RH237. Fluorescence was recorded with a high-speed CMOS camera (Ultima-L, SciMedia, Costa Mesa, CA) at a rate of 500 frames/s. […] A derivative of the vectorcardiogram was obtained by projecting the repolarization loop along its maximum axis where the projection may be called a loop optimized rEGM (i.e., which is a type of repolarization-optimized EGM that in this case is determined using the loop method described with respect to FIG. 5C). A measurement of repolarization duration, called APD^v, was measured from the onset of QRS to baseline return of the loop rEGM. It was hypothesized that rEGM provides vector-derived integrated action potential duration (APD^v) that correlates with local repolarization assessed by optical mapping. […]

CC(N/C(=N\C#N)Nc1ccncc1)C(C)(C)C (centres unmarked) [Pinacidil, pinacidil]
APD (optical APD90 from fluorescence) (baseline APD90 151 ms): 89 ms
ARI (repolarization duration from loop rEGM) (baseline APD^v average 142 ms): 68 ms
